The values that follow come from ChEMBL document CHEMBL5113378, “Role of basic aminoalkyl chains in the lead optimization of Indoloquinoline alkaloids” (Eur J Med Chem, 2022).

Molecules are shown by their SMILES.

The subject of data set [1] is Plasmodium falciparum. In words: Antimalarial activity against Plasmodium falciparum NF54 assessed as parasite growth inhibition. In kind it is functional, organism-based.
The nature of data set [2]: Selectivity index, ratio of IC50 for rat L6 cells to IC50 for Plasmodium falciparum NF54. The note with it: read-out: Ratio IC50. The class given is toxicity.
Data set [3] is described as follows: Cytotoxicity against rat L6 cells assessed as cell growth inhibition. The class given is toxicity, cell-based.
Data set [4] relates to Hemozoin. Put plainly: Inhibition of beta-hematin formation.
The subject of data set [5] is DU-145. In words: Antiproliferative activity against human DU-145 cells assessed as cell growth inhibition. In kind it is functional.
Data set [6] concerns MCF7. Put plainly: Antiproliferative activity against human MCF7 cells assessed as cell growth inhibition. The class given is functional, cell-based.
Data set [7] relates to HeLa. In words: Antiproliferative activity against human HeLa cells assessed as cell growth inhibition. In kind it is functional, cell-based.
Data set [8] relates to A549. In words: Antiproliferative activity against human A549 cells assessed as cell growth inhibition. In kind it is functional, cell-based.
Data set [9] relates to HCT-116. Put plainly: Antiproliferative activity against human HCT-116 cells assessed as cell growth inhibition. The class given is functional, cell-based.
Data set [10] in a line: Antiproliferative activity against […] LLTC cells assessed as cell growth inhibition incubated for 4 days by sulphorhodamine assay. In kind it is functional, cell-based. The note with it: LLTC cell line, 96 h.
Data set [11] relates to Jurkat. Put plainly: Antiproliferative activity against human Jurkat cells assessed as cell growth inhibition incubated for 4 days by sulphorhodamine assay. The class given is functional, cell-based. Particulars: 96 h.
The test system of data set [12] is P388. Put plainly: Antiproliferative activity against mouse P388 cells assessed as cell growth inhibition by measuring [3H]TdR uptake incubated for 3 days. In kind it is functional, cell-based.
The target in data set [13] is T1, Telomerase reverse transcriptase (Homo sapiens, UniProt O14746). In words: Inhibition of telomerase derived from human K562 cell extract incubated for 30 mins by TRAP assay. The class given is cell-free.
Data set [14] concerns Plasmodium falciparum. In words: Antimalarial activity against chloroquine/mefloquine resistant Plasmodium falciparum clinical isolates assessed as parasite growth inhibition incubated for 24 hrs by microtechnique method. The class given is functional, organism-based.
The test system of data set [15] is Plasmodium falciparum. In words: Antimalarial activity against Plasmodium falciparum K1 assessed as parasite growth inhibition. In kind it is functional, organism-based.
Data set [16] can be described thus: Selectivity index, ratio of IC50 for rat L6 cells to IC50 for Plasmodium falciparum K1. The class given is toxicity. The note with it: read-out: Ratio IC50.
Data set [17] is described as follows: Selectivity index, ratio of CC50 for human Huh-7 cells to IC50 for Plasmodium falciparum 3D7. The class given is toxicity. Particulars: read-out: Ratio CC50/IC50.
Data set [18] has as its system Hemozoin. In words: Inhibition of detergent-mediated beta-hematin formation incubated for 6 hrs by multiwell plate reader analysis.
Data set [19] deals with Plasmodium berghei. Put plainly: Antimalarial activity against Plasmodium berghei ANKA infected in BALB/c mouse assessed as parasite growth inhibition at 50 mg/kg, po administered for 4 consecutive days measured for 7 to 13 days by geimsa dye based microscopy relative to control. Particulars: time 7-13 day. In kind it is functional. Details: scale not given: the % may be the effect or the level left.

Data set [20] relates to Plasmodium falciparum. Put plainly: Antimalarial activity against Plasmodium falciparum 3D7 assessed as parasite growth inhibition incubated for 48 hrs by SYBR green dye based fluorescence assay. The class given is functional, organism-based. The note with it: 3D7, 48 h.
Data set [21] concerns Plasmodium falciparum. In words: Antimalarial activity against Plasmodium falciparum Dd2 assessed as parasite growth inhibition incubated for 48 hrs by SYBR green dye based fluorescence assay. The class given is functional, organism-based. The note with it: Dd2, 48 h.
Data set [22] deals with Plasmodium falciparum. Put plainly: Antimalarial activity against Plasmodium falciparum INDO assessed as parasite growth inhibition incubated for 48 hrs by SYBR green dye based fluorescence assay. The class given is functional, organism-based.
The subject of data set [23] is Plasmodium berghei. Put plainly: Antimalarial activity against Plasmodium berghei NK65 infected in Webster Swiss mouse assessed as parasite growth inhibition at 50 mg/kg/day, po for 5 days by geimsa dye based microscopy relative to control. The class given is functional. On the set-up: scale not given: the % may be the effect or the level left. The note with it: time 5 day.

Data set [24] can be described thus: Selectivity index, ratio of IC50 for rat L6 cells to IC50 for erythrocytic Plasmodium falciparum NF54. Particulars: read-out: Ratio IC50. In kind it is toxicity.
Data set [25] has as its system Hemozoin. Put plainly: Inhibition of detergent-mediated beta-hematin formation incubated for 5 to 6 hrs by absorbance based assay.
The subject of data set [26] is Trypanosoma brucei. In words: Antitrypanosomal activity against Trypanosoma brucei assessed as parasite growth inhibition. The class given is functional, organism-based.
Data set [27] has as its system K562. Put plainly: Antiproliferative activity against human K562 cells assessed as cell growth inhibition. In kind it is functional.
For data set [28], the system named is RPMI-8226. Put plainly: Antiproliferative activity against human RPMI-8226 cells assessed as cell growth inhibition. In kind it is functional.
The subject of data set [29] is MOLT-4. Put plainly: Antiproliferative activity against human MOLT-4 cells assessed as cell growth inhibition. The class given is functional.
In data set [30] the test system is A2780. Put plainly: Cytotoxicity against drug resistant human A2780 cells assessed as cell growth inhibition. In kind it is functional, cell-based.
For data set [31], the system named is SK-OV-3. In words: Cytotoxicity against human SK-OV-3 cells assessed as cell growth inhibition. In kind it is functional, cell-based.
The test system of data set [32] is CH1. In words: Cytotoxicity against drug resistant human CH1 cells assessed as cell growth inhibition. The class given is functional, cell-based.
In data set [33] the test system is CH1. In words: Cytotoxicity against human CH1 cells assessed as cell growth inhibition. In kind it is functional, cell-based.
The test system of data set [34] is Plasmodium falciparum. Put plainly: Antimalarial activity against multi-drug resistant Plasmodium falciparum K1 assessed as parasite growth inhibition by microdilution method. In kind it is functional, organism-based.
Data set [35] concerns A2780. Put plainly: Cytotoxicity against human A2780 cells assessed as cell growth inhibition. In kind it is functional, cell-based.
In data set [36] the target is T1, Telomerase reverse transcriptase. Put plainly: Inhibition of telomerase derived from human A2780 cell extract by TRAP assay. The class given is cell-free.

T1 sequence (O14746 whole entry): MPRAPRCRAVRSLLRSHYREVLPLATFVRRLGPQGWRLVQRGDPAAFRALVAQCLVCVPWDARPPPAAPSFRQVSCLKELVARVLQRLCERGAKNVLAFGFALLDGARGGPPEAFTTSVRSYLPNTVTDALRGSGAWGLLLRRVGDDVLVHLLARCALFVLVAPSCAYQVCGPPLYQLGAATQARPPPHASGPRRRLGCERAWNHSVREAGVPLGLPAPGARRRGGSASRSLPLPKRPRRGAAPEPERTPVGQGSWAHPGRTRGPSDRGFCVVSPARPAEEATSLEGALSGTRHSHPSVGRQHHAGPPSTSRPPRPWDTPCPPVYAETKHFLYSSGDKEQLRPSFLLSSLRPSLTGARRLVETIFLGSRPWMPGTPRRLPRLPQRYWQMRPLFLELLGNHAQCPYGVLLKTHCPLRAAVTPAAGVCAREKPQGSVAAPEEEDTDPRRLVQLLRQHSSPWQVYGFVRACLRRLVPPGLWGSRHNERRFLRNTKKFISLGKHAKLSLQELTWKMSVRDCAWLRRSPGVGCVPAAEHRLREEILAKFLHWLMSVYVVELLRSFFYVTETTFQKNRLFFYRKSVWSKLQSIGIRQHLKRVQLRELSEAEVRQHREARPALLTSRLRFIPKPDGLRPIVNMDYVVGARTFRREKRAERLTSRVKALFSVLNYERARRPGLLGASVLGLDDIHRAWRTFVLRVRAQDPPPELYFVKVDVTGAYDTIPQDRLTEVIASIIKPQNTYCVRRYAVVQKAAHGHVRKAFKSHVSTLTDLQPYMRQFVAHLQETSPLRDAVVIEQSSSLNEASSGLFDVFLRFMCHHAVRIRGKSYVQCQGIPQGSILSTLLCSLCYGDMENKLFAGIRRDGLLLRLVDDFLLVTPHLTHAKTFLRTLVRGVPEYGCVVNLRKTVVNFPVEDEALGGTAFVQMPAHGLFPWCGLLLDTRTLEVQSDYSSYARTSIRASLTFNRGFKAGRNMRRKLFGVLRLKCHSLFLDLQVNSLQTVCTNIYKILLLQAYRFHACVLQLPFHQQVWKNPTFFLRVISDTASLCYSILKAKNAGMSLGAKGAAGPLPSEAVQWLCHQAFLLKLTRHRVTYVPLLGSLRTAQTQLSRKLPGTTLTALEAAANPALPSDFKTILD

For the molecule `Cn1c2nc3ccccc3c-2c(NCC(C)(C)CNC(=O)Nc2ccccc2)c2ccccc21`, the IC50 (usually the midpoint of a concentration-inhibition curve) in data set [1] turned out to be 0.068 µM; in data set [3], 5.65 µM; in data set [4], 26.3 µM. In addition, the selectivity ratio in [2] was determined as 82.2.

For `Cn1c2ccccc2c2c(C(=O)NC3CCCCC3)c3cc(Cl)ccc3nc21`, the concentration for 50% growth inhibition (GI50) (usually the concentration giving 50% growth inhibition) in [5] stood at 20.7 µM; in data set [6], 9.7 µM; in data set [7] it was 10.3 µM; in data set [8], 7.2 µM.

With `CNCCCNc1c2ccccc2nc2c1[nH]c1ccccc12`, the 50% inhibitory concentration (IC50) in [9] worked out at 0.3 µM.

Regarding `Cc1cccc2c1c1nc3c(C(=O)NCCN(C)C)cccc3cc1n2C`, the IC50 in data set [10] was 0.018 µM; in data set [11], 0.055 µM; in data set [12], 0.02 µM.

In data set [13], `c1ccc2c(NCCN3CCOCC3)c3[nH]c4ccccc4c3nc2c1` showed a 50% inhibitory concentration (IC50) of 0.55 µM.

Turning to `COc1ccc2[nH]c3c4ccc(Cl)cc4ncc3c2c1`, the IC50 in data set [14] is 0.002 µM.

Turning to `CN(CCCNc1c2ccccc2nc2c1[nH]c1ccccc12)C(=O)c1cccc(B(O)O)c1`, the IC50 in data set [9] worked out at 15.7 µM.

For `CN(C)CCNc1nc2ccccc2c2[nH]c3ccccc3c12`, the IC50 in data set [1] amounted to 0.0137 µM; in data set [15], 0.0827 µM; in data set [3], 0.627 µM; in data set [4], 627 µM. The selectivity ratio stood at 7.6 in data set [16] and 45.8 in data set [2].

On to `NCCCNc1c2ccccc2nc2c1[nH]c1ccccc12`, for which, in [2], the selectivity ratio amounted to 16. Moreover, in data set [4], half-maximal inhibition (IC50) required 16.8 µM.

In the case of `O=C(NCCN1CCCCC1)c1c2cc(Br)ccc2nc2c1[nH]c1ccccc12`, in data set [17], the selectivity ratio turned out to be 46.9. Besides, the IC50 in data set [18] amounted to 840 µM; in data set [20], 1.3 µM; in data set [21], 6.3 µM; in data set [22] it was 5 µM. Besides, in [19], the Activity amounted to 27%.

Molecule `OCCNc1c2ccccc2nc2c1[nH]c1ccccc12` had a half-maximal inhibitory concentration (IC50) in data set [13] of 2.35 µM.

Consider `COC(=O)c1ccc2c(c1)c(NCCCN)c1c3ccccc3nc-1n2C`, for which the half-maximal inhibitory concentration (IC50) in data set [4] amounted to 104 µM.

Turning to `COC(=O)c1ccc2nc3n(C)c4ccccc4c(NCCCN)c-3c2c1`, the selectivity ratio in [16] came to 7.2. In data set [4], this molecule had a half-maximal inhibitory concentration (IC50) of 48.9 µM.

Take `C[n+]1c2ccccc2c(NC2CCNCC2)c2[nH]c3ccccc3c21`: the Activity in [23] came out at 55%.

Regarding `C[C@H]1[C@H](OC(=O)CCC(=O)NCCCNc2c3ccccc3nc3c2[nH]c2ccccc23)O[C@@H]2O[C@@]3(C)CC[C@H]4[C@H](C)CC[C@@H]1[C@@]24OO3`, the selectivity ratio in data set [24] was 1720. The same molecule registered a 50% inhibitory concentration (IC50) in data set [25] of 17.1 µM.

In the case of `Cn1c2nc3ccccc3c-2c(NCCCN2C(=O)c3ccccc3SC2c2ccc(Cl)cc2)c2ccccc21` (configuration not stated), the half-inhibitory concentration (IC50) in data set [1] turned out to be 0.0026 µM; in data set [26], 0.868 µM. Further, the selectivity ratio in data set [2] came out at 361.

Regarding `Cn1c2nc3ccccc3c-2c(Nc2ccccc2)c2ccccc21`, the GI50 in data set [27] worked out at 1.84 µM; in data set [28] it was 1.08 µM; in data set [29], 0.32 µM.

Consider `COc1cc2c(cc1CN(C)CCCN(C)C)[nH]c1c3ccc(Cl)cc3ncc21`, for which the half-inhibitory concentration (IC50) in data set [14] stood at 0.000192 µM.

As to `CCN(CC)Cc1cc2[nH]c3c4ccc(Cl)cc4ncc3c2cc1OC`, the concentration for half-maximal inhibition (IC50) in data set [15] turned out to be 0.009 µM.

As for `c1ccc2nc3c(cc2c1)[nH]c1ccccc13` [QUINDOLINE], the IC50 in data set [30] is 24.5 µM; in data set [31], 66 µM; in data set [32] it was 30 µM; in data set [33], 15.5 µM; in data set [34], greater than 229 µM; in [35], 21.5 µM. This molecule also had an IC50 in [13] greater than 138 µM.

Consider `c1cc2nc3c(cc2cc1CCCN1CCCC1)[nH]c1ccc(CCCN2CCCC2)cc13`, for which 6.3 µM corresponded to half-maximal inhibition in [36] (IC50).
